# Data reported in paper PMC9090415, “Discovery of small molecule inhibitors of Plasmodium falciparum apicoplast DNA polymerase” (Journal of Enzyme Inhibition and Medicinal Chemistry, 2022).
# Target: P. falciparum apicoplast DNA polymerase (Pf-apPOL) (Plasmodium falciparum, UniProt Q8ILY1)
# Experiment: Fluorescence-based high-throughput DNA polymerase assay (molecular beacon), primary screen and dose-response
# Type: biochemical
# Details: for DNA Pol: 90 min, 10 µM; for % inhibition apPOL 180' 2.5 / % inhibition apPOL 180' 5 / % inhibition apPOL 180' 10 / % inhibition apPOL 180' 20 / % inhibition apPOL 180' 40 / % inhibition apPOL 180' 80: read at 180'
# How it was run: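 Single-point screening used 10 µM compound with 20 nM polymerase, 20 nM hairpin substrate and 6 µM dNTPs for 90 min at 25 °C. Confirmatory titrations (2.5–80 µM) followed fluorescence at three times, and IC50 was derived from a fit including a cooperativity term n.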
# P. falciparum apicoplast DNA polymerase (Pf-apPOL), sequence (Q8ILY1 entry or part of it): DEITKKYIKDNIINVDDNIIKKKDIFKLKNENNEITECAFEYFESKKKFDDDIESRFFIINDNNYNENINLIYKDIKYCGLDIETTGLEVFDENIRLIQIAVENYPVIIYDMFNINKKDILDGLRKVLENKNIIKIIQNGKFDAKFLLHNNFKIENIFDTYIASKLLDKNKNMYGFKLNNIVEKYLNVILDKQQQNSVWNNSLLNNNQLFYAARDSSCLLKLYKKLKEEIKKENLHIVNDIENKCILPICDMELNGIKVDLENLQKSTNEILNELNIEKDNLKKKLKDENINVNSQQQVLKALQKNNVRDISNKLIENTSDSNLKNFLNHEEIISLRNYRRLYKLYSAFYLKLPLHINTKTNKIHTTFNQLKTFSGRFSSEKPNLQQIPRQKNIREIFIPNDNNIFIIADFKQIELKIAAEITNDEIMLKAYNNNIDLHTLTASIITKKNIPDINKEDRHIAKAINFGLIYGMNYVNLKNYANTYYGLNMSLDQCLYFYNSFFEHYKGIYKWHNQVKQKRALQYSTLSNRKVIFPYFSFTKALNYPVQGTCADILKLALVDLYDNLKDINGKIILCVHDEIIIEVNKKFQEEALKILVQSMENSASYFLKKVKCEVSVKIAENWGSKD
smiles,measurement,setting,value
N#Cc1c(O)nc(N2CCCCC2)nc1-c1ccc2c(c1)OCO2 [KU0083146],DNA Pol,"186 hits, DNA Pol (screen value), unit not given",49
same,DNA Pol,"'DNA Pol' (screen value), unit not given",49
same,% inhibition Apo pol 10' 2.5,"DRC-1, read at 10', concentration 2.5",13.1271%
same,% inhibition Apo pol 10' 5,"DRC-1, read at 10', concentration 5",26.6749%
same,% inhibition Apo pol 10' 10,"DRC-1, read at 10', concentration 10",53.7038%
same,% inhibition Apo pol 10' 20,"DRC-1, read at 10', concentration 20",55.5357%
same,% inhibition Apo pol 10' 40,"DRC-1, read at 10', concentration 40",66.277%
same,% inhibition Apo pol 10' 80,"DRC-1, read at 10', concentration 80",78.8965%
same,% inhibition Apol 90' 2.5,"DRC-1, read at 90', concentration 2.5",5.9065%
same,% inhibition Apol 90' 5,"DRC-1, read at 90', concentration 5",16.8272%
same,% inhibition Apol 90' 10,"DRC-1, read at 90', concentration 10",42.1383%
same,% inhibition Apol 90' 20,"DRC-1, read at 90', concentration 20",45.0693%
same,% inhibition Apol 90' 40,"DRC-1, read at 90', concentration 40",57.8585%
same,% inhibition Apol 90' 80,"DRC-1, read at 90', concentration 80",71.163%
same,% inhibition apPOL 180' 2.5,"DRC-1, concentration 2.5",-1.148%
same,% inhibition apPOL 180' 5,"DRC-1, concentration 5",6.188%
same,% inhibition apPOL 180' 10,"DRC-1, concentration 10",30.2008%
same,% inhibition apPOL 180' 20,"DRC-1, concentration 20",34.0367%
same,% inhibition apPOL 180' 40,"DRC-1, concentration 40",46.9072%
same,% inhibition apPOL 180' 80,"DRC-1, concentration 80",62.3261%
same,% inhibition Apo pol 5',"DRC-2, concentration 2.5",13%
same,% inhibition Apo pol 5',"DRC-2, concentration 10",33%
same,% inhibition Apo pol 5',"DRC-2, concentration 40",53%
same,% inhibition Apol 40',"DRC-2, concentration 2.5",13%
same,% inhibition Apol 40',"DRC-2, concentration 10",33%
same,% inhibition apPOL 180',"DRC-2, concentration 40",53%
same,% inhibition Apo pol 5' 2.5,"DRC-2, read at 5', concentration 2.5",13%
same,% inhibition Apo pol 5' 5,"DRC-2, read at 5', concentration 5",27%
same,% inhibition Apo pol 5' 10,"DRC-2, read at 5', concentration 10",33%
same,% inhibition Apo pol 5' 20,"DRC-2, read at 5', concentration 20",44%
same,% inhibition Apo pol 5' 40,"DRC-2, read at 5', concentration 40",53%
same,% inhibition Apo pol 5' 80,"DRC-2, read at 5', concentration 80",57%
same,% inhibition Apol 40' 2.5,"DRC-2, read at 40', concentration 2.5",13%
same,% inhibition Apol 40' 5,"DRC-2, read at 40', concentration 5",28%
same,% inhibition Apol 40' 10,"DRC-2, read at 40', concentration 10",33%
same,% inhibition Apol 40' 20,"DRC-2, read at 40', concentration 20",49%
same,% inhibition Apol 40' 40,"DRC-2, read at 40', concentration 40",60%
same,% inhibition Apol 40' 80,"DRC-2, read at 40', concentration 80",65%
same,% inhibition ApPOL 90' 2.5,"DRC-2, read at 90', concentration 2.5",11%
same,% inhibition ApPOL 90' 5,"DRC-2, read at 90', concentration 5",26%
same,% inhibition ApPOL 90' 10,"DRC-2, read at 90', concentration 10",31%
same,% inhibition ApPOL 90' 20,"DRC-2, read at 90', concentration 20",47%
same,% inhibition ApPOL 90' 40,"DRC-2, read at 90', concentration 40",59%
same,% inhibition ApPOL 90' 80,"DRC-2, read at 90', concentration 80",66%
same,% inhibition apPOL 180' 2.5,"DRC-2, concentration 2.5",5.4%
same,% inhibition apPOL 180' 5,"DRC-2, concentration 5",17%
same,% inhibition apPOL 180' 10,"DRC-2, concentration 10",23%
same,% inhibition apPOL 180' 20,"DRC-2, concentration 20",40%
same,% inhibition apPOL 180' 40,"DRC-2, concentration 40",53%
same,% inhibition apPOL 180' 80,"DRC-2, concentration 80",61%
"O=[N+]([O-])c1ccc(/C=C/c2ccc3ccccc3n2)o1 [Molecule 21, O=N(=O)c1ccc(o1)/C=C/c1ccc2c(n1)cccc2]",DNA Pol,"""DNA Pol"" of the 186 hits list (screen value)",59
same,% inhibition Apo pol 10',"DRC-1, concentration 2.5",21.0135%
same,% inhibition Apo pol 10',"DRC-1, concentration 5",49.9982%
same,% inhibition Apo pol 10',"DRC-1, concentration 10",70.3482%
same,% inhibition Apo pol 10',"DRC-1, concentration 20",76.4404%
same,% inhibition Apo pol 10',"DRC-1, concentration 40",64.8126%
same,% inhibition Apo pol 10',"DRC-1, concentration 80",40.0961%
same,% inhibition Apol 90',"DRC-1, concentration 2.5",13.3257%
same,% inhibition Apol 90',"DRC-1, concentration 5",34.694%
same,% inhibition Apol 90',"DRC-1, concentration 10",59.8691%
same,% inhibition Apol 90',"DRC-1, concentration 20",78.6772%
same,% inhibition Apol 90',"DRC-1, concentration 40",78.7593%
same,% inhibition Apol 90',"DRC-1, concentration 80",64.7186%
same,% inhibition apPOL 180',"DRC-1, concentration 2.5",4.404%
same,% inhibition apPOL 180',"DRC-1, concentration 5",20.9702%
same,% inhibition apPOL 180',"DRC-1, concentration 10",46.0127%
same,% inhibition apPOL 180',"DRC-1, concentration 20",74.6169%
same,% inhibition apPOL 180',"DRC-1, concentration 40",82.0338%
same,% inhibition apPOL 180',"DRC-1, concentration 80",72.6505%
same,% inhibition Apo pol 5',"DRC-2, concentration 2.5",37%
same,% inhibition Apo pol 5',"DRC-2, concentration 5",38%
same,% inhibition Apo pol 5',"DRC-2, concentration 10",41%
same,% inhibition Apo pol 5',"DRC-2, concentration 20",27%
same,% inhibition Apo pol 5',"DRC-2, concentration 40",16%
same,% inhibition Apo pol 5',"DRC-2, concentration 80",-66%
same,% inhibition Apol 40',"DRC-2, concentration 2.5",44%
same,% inhibition Apol 40',"DRC-2, concentration 5",51%
same,% inhibition Apol 40',"DRC-2, concentration 10",63%
same,% inhibition Apol 40',"DRC-2, concentration 20",61%
same,% inhibition Apol 40',"DRC-2, concentration 40",54%
same,% inhibition Apol 40',"DRC-2, concentration 80",10%
same,% inhibition ApPOL 90',"DRC-2, concentration 2.5",41%
same,% inhibition ApPOL 90',"DRC-2, concentration 5",50%
same,% inhibition ApPOL 90',"DRC-2, concentration 10",65%
same,% inhibition ApPOL 90',"DRC-2, concentration 20",67%
same,% inhibition ApPOL 90',"DRC-2, concentration 40",62%
same,% inhibition ApPOL 90',"DRC-2, concentration 80",30%
same,% inhibition apPOL 180',"DRC-2, concentration 2.5",29%
same,% inhibition apPOL 180',"DRC-2, concentration 5",39%
same,% inhibition apPOL 180',"DRC-2, concentration 10",61%
same,% inhibition apPOL 180',"DRC-2, concentration 20",71%
same,% inhibition apPOL 180',"DRC-2, concentration 40",69%
same,% inhibition apPOL 180',"DRC-2, concentration 80",50%
same,DNA Pol,"primary screen value, DNA Pol",59
